How the values were obtained:
[1] = system: Human lung epithelial cell line (A549); assay: Cell viability by CCK-8 assay in A549 cells; type: cell-based; details: 1 to 80 μM, 24 h
Method: (§1) Human lung epithelial cell line (A549) and primary alveolar macrophage cell culture: Human lung epithelial cell line (A549, ATCC #CCL-185) was purchased from ATCC (Manassas, Va.); and primary alveolar macrophages were prepared from healthy adult animals (swine). A549 cells and primary alveolar macrophages were cultured in RPMI Media 1640 medium supplemented with 10% (v/v) FBS, 1% (v/v) L-glutamine (200 mM) and 1% (v/v) Antibiotic-Antimycotic antibiotics at 37° C. in a humidified 5% CO2 incubator.
(§2) CMC 2.24 treatment and PM2.5 exposure: The cells were subcultured when cells were grown to about 70% confluency. […]
(§3) Analysis of cell viability by CCK-8 assay: In order to study the effect of CMC2.24 in A549 cells and primary alveolar macrophages after PM2.5 exposure, cell viability was determined using Cell Counting Kit (CCK)-8 kit (Sigma-Aldrich, MO, USA) according to the manufacturer's instructions, A549 cells (0.5×10^4/well) and primary macrophages (1×10^4/well) were cultured in 96-well plates for 24 h and 6 h, respectively; the cells were then exposed to various concentrations of CMC 2.24 (i.e. 0, 1, 5, 10, 20, 30, 40, and 80 μM of CMC 2.24) in the presence or absence of 100 μg/ml PM2.5 in the media for 24 h. […] Then optical density value was measured at 450 nm using a microplate reader (Multiskan Ascent, Thermo Lab systems). […]

[2] = system: S. aureus-infected hTG SP-B mice; assay: Mortality in S. aureus pneumonia in hTG SP-B mice; type: in vivo, mouse; details: 50 mg/kg daily
Method: S. aureus-induced pneumonia model: Pilot experiments were performed to establish the S. aureus Xen36 pneumonia model using different doses of bacteria to infect mouse lung. […] Therefore, direct intratracheal inoculation of bioluminescent S. aureus Xen36 at a dose of 5×10^8/50 μl was used to infect mice in all subsequent experiment (Farnsworth, C. W. et al. 2015; Schriever, M. P. et al. 2011). In brief, hTG SP-B mice between 8 and 12 weeks old were anesthetized using intraperitoneal ketamine/xylazine (90 mg/kg ketamine, 10 mg/kg xylazine) injection. A 0.3-cm mid-line neck incision was made to expose the trachea. In the sham group, 50 μl of sterile vehicle was injected into the trachea by the same method. After infection, bio-luminescence signal was observed and quantified by an in vivo imaging system. (Xenogen-200 series, Caliper Life Sciences, Hopkinton, Mass.). Buprenorphine (0.05 mg/kg body weight) was injected for postoperative analgesia every 8-12 hrs. Mice were returned to their cages in a temperature-controlled room. (22. ° C.) with 12-h light and dark cycles and monitored every 4 h. Mice were anesthetized with isoflurane (2%) at several time points after infection (0 h, 12 h, 24 h, 28 h, 32 h, and 48 h) (Pribaz, J. R. et al, 2012; Guo, Y, et al, 2013). At 48 h after S. aureus infection, nice were sacrificed under anesthesia. […]

[3] = system: IL-1β relative to lipoxin A4; assay: Experiment B: IL-1β/lipoxin A4 ratio in LPS-exposed macrophages in culture; type: cell-based, rat; details: LPS (100 ng/ml)-exposed macrophages, CMC2.24 5 μM
Method: (§4) In the second experiment, macrophages (chronic inflammatory cells), were collected and counted from the peritoneal washes of the six non-diabetic control rats. These cells were then pooled and incubated under different in vitro conditions including: group 1, control Møs; group 2, Møs incubated with lipopolysaccharide (LPS)/endotoxin at 100 ng/ml, final concentration, added to the culture media; group 3, Møs exposed to LPS but treated with CMC2.24 at a final concentration of 2 μM; and group 4, like group 3 except that CMC2.24 was increased to 5 μM (note that in this cell culture experiment, sufficient IL-6 was secreted by the LPS-exposed Møs unlike Experiment A, above).

[4] = system: primary alveolar macrophages; assay: Cell viability by CCK-8 assay in primary alveolar macrophages; type: cell-based; details: 1 to 80 μM, 24 h
Method: as §1, §2, §3

[5] = cell and tissue culture, in vivo studies; cited from earlier work
[6] = rats with pathologically excessive MMPs, doses as high as 500 mg/kg of body weight; cited from earlier work
Lipoxin A4 = Lipoxin A4 ELISA in macrophage conditioned media, CFE and serum of diabetic rats; type: in vivo, rat; details: STZ-diabetic rats, 30 mg/kg oral once per day for 3 weeks
Method: (§5) Adult rats were made diabetic by I.V. injection of streptozotocin; non-diabetic rats served as controls (n=6 rats per group; all groups). Half of the diabetics (blood glucose >500 mg/dl) were orally administered CMC2.24 (30 mg/kg) once per day for 3 weeks; untreated diabetics (D) and N rats received vehicle alone. PEs were collected at time=0 (ie, before thioglycollate injection into peritoneal cavity). Resident macrophages were isolated from PEs, then incubated in cell culture for 13 hours (370 C; 95% air/5% CO2 atmosphere). Lipoxin A4 levels were measured by ELISA (a) in cell culture serum-free conditioned media; (b) in the cell-free exudates (CFEs); and (c) in serum.

Solubility = type: physicochemical
Lipoxin B4 = Lipoxin B4 ELISA in macrophage conditioned media, CFE and serum of diabetic rats; type: in vivo, rat; details: STZ-diabetic rats, 30 mg/kg oral once per day for 3 weeks
Method: as §5, with “18” for “13”, “B4” for “A4”

[7] = cited from earlier work
[8] = system: IL-6 relative to lipoxin A4; assay: Experiment B: IL-6/lipoxin A4 ratio in LPS-exposed macrophages in culture; type: cell-based, rat; details: LPS (100 ng/ml)-exposed macrophages, CMC2.24 5 μM
Method: as §4

[9] = system: IL-1β relative to lipoxin A4; assay: Experiment A: IL-1β and lipoxin A4 secreted by macrophages from treated diabetic rats; type: in vivo, rat; details: 30 mg/kg oral once per day for 21 days, compared to untreated diabetics
Method: In an in vivo experiment, three groups of adult male rats were established including non-diabetic controls (NDC group; n=6 rats/group); rats that were made diabetic and severely hyperglycemic by STZ injection (D+vehicle group; n=6 rats/group), and a 3rd group of rats (n=6 rats/group) in which the diabetics were orally administered CMC2.24 (30 mg/kg body weight) once per day for 21 days. At the end of the protocol, the rats were sacrificed and the peritoneal cells were collected by washing with cold 15 ml phosphate buffered saline/EDTA, The macrophages were harvested from the peritoneal wash from each rat, after 2 hours of adherence to culture plates (sterile conditions), the cells were counted and then incubated for 18 h at 37° C. in an atmosphere of 95% air/5% CO2. The conditioned media was then collected and analyzed for the resolvin, lipoxin A4, and for two inflammatory cytokines, IL-1β and IL-6. The data is expressed as a ratio of […] (pg/ml) relative to resolvin (ng/ml) secreted by the macrophages from the three experimental groups (FIG. 45A).

[10] = system: elastase/LPS-treated COPD mice; assay: Morphometry: mean linear intercept (chord length) in COPD mice; type: in vivo, mouse; details: oral gavage for seven days, control 33, COPD 54
Method: Elastase and LPS exposure: A total of 180 male and 180 female WT mice (8-12 weeks old) were used for all experiments. Experiments were performed in triplicate for each group of age- and gender-matched mice. Animals were exposed by the intranasal route to 10 μl saline containing 1.2 units of porcine pancreatic elastase (Elastin Products, Owensville, Mo.) on Tuesday and 10 μl saline containing 7 μg (−70 endotoxin units) of LPS from Escherichia coli O26:B6 (Sigma-Aldrich, St. Louis, Mo.) on Friday of each week for four consecutive weeks.
3 mg of CMC2.24 powder were dissolved in 1 mL suspension of 2% Carboxymethyl cellulose vehicle for the daily oral administration of CMC2.24 (40 mg/kg). Vehicle alone was administered to the control group. Both CMC2.24 and vehicle control were administered once daily over the 7-day protocol by gavage (Zhang, Y. et al. 2010; Elburki, M. S. et al. 2014).
Morphometry—Air Space Enlargement: In an effort to quantitate alveolar air space enlargement, the Mean Linear Intercept (MLI) was implemented. […] Afterwards, seven equally spaced lines were then drawn within the guard zone, and directly measured by manual use of a ruler. Starting from the left, the line was scanned for any intersections with the alveolar walls and measured until the following intersection with the alveolar surface on the right. […]

## O=C(/C=C/c1ccc(O)cc1)C(C(=O)/C=C/c1ccc(O)cc1)C(=O)Nc1ccccc1 [CMC2.24]
[1]
  cell viability (CCK-8), compound alone: did not influence cell viability
[2]; infected SP-B-C mice, control 76%, p<0.05
  mortality rate: 50%
[2]; infected SP-B-T mice, control 33%
  mortality rate: 32%
[3]
  reduction of IL-1β/lipoxin A4 ratio: 93.8%
[4]
  cell viability (CCK-8), compound alone: did not influence cell viability
[5]
  toxicity compared to the parent compound: even less toxicity
[6]
  toxicity on oral gavage: no evidence of toxicity
Lipoxin A4
  increase of Lipoxin A4 in rat serum: 15.5%
  increase of Lipoxin A4 in resident peritoneal cell-free exudates: 80.6%
Lipoxin A4; vs untreated diabetics
  increase of Lipoxin A4 secretion by resident peritoneal macrophages: 12.7%
Solubility
  solubility relative to CMC2.5: improved solubility
Lipoxin B4
  increase of Lipoxin B4 secretion by resident peritoneal macrophages: 12.7%
[7]
  solubility relative to curcumin: improved solubility
[8]
  reduction of IL-6/lipoxin A4 ratio: 86%
[9]
  reduction of ratio IL-1β relative to lipoxin A4 secreted by macrophages: 85.3%
[10]
  average chord length (mean linear intercept): 35 µm

Source: patent publication US20210322346A1, “CHEMICALLY MODIFIED CURCUMINS FOR USE IN THE PRODUCTION OF LIPOXINS” (The Research Foundation for The State University of New York, priority 2015, published 2021)
